Laboratory results reported in ChEMBL document CHEMBL5625170, “Design, synthesis, and biological evaluation of novel penindolone derivatives as potential inhibitors of hemagglutinin-mediated membrane fusion” (Eur J Med Chem, 2023).

Legend:
[1] = Cytotoxicity against dog MDCK cells assessed as cell viability measured after 48 hrs by MTT assay; format: toxicity, cell-based, Canis lupus familiaris
[2] = Selectivity index, ratio of CC50 for cytotoxicity against dog MDCK cells to IC50 for anti-viral activity against Influenza A virus (A/Puerto Rico/8/34 infected in MDCK cells; format: toxicity, cell-based; conditions: read-out: Selectivity Index

SMILES: CC(=O)c1cc(C)c(O)c(Cc2[nH]c3ccc(-c4ccc5c(c4)CCO5)cc3c2Cc2c(O)c(C)cc(C(C)=O)c2O)c1O
- CC50 at 48 h [1]: > 300 µM

SMILES: CC(=O)c1cc(C)c(O)c(Cc2[nH]c3cc(-c4ccccc4F)ccc3c2Cc2c(O)c(C)cc(C(C)=O)c2O)c1O
- CC50 at 48 h [1]: > 300 µM

SMILES: CC(=O)c1cc(C)c(O)c(Cc2[nH]c3ccc(-c4c5ccccc5c(-c5ccccc5)c5ccccc45)cc3c2Cc2c(O)c(C)cc(C(C)=O)c2O)c1O
- CC50 at 48 h [1]: > 300 µM

SMILES: CC(=O)c1cc(C)c(O)c(Cc2[nH]c3cc(-c4c5ccccc5c(-c5ccccc5)c5ccccc45)ccc3c2Cc2c(O)c(C)cc(C(C)=O)c2O)c1O
- CC50 at 48 h [1]: > 300 µM

SMILES: CC(=O)c1cc(C)c(O)c(Cc2[nH]c3cc(-c4cc(C(C)(C)C)cc(C(C)(C)C)c4)ccc3c2Cc2c(O)c(C)cc(C(C)=O)c2O)c1O
- CC50 at 48 h [1]: 280 µM
- selectivity ratio [2]: 10.4

SMILES: CC(=O)c1cc(C)c(O)c(Cc2[nH]c3cc(-c4ccc(F)cc4)ccc3c2Cc2c(O)c(C)cc(C(C)=O)c2O)c1O
- CC50 at 48 h [1]: 256 µM
- selectivity ratio [2]: 13.4

SMILES: CC(=O)c1cc(C)c(O)c(Cc2[nH]c3cc(-c4cccc(F)c4)ccc3c2Cc2c(O)c(C)cc(C(C)=O)c2O)c1O
- CC50 at 48 h [1]: > 300 µM

SMILES: COc1ccc(Cn2c(Cc3c(O)c(C)cc(C(C)=O)c3O)c(Cc3c(O)c(C)cc(C(C)=O)c3O)c3ccccc32)cc1
- CC50 at 48 h [1]: > 300 µM

SMILES: CC(=O)c1cc(C)c(O)c(Cc2[nH]c3ccc(-c4ccccc4F)cc3c2Cc2c(O)c(C)cc(C(C)=O)c2O)c1O
- CC50 at 48 h [1]: > 300 µM

SMILES: CC(=O)c1cc(C)c(O)c(Cc2[nH]c3cc(/C=C/c4ccccc4)ccc3c2Cc2c(O)c(C)cc(C(C)=O)c2O)c1O
- CC50 at 48 h [1]: > 300 µM

SMILES: CC(=O)c1cc(C)c(O)c(Cc2[nH]c3cc(-c4ccc5c(c4)CCO5)ccc3c2Cc2c(O)c(C)cc(C(C)=O)c2O)c1O
- CC50 at 48 h [1]: > 300 µM

SMILES: COc1ccc(-c2ccc3c(Cc4c(O)c(C)cc(C(C)=O)c4O)c(Cc4c(O)c(C)cc(C(C)=O)c4O)[nH]c3c2)cc1OC
- CC50 at 48 h [1]: 240 µM
- selectivity ratio [2]: 12.2

SMILES: COc1cc(-c2ccc3[nH]c(Cc4c(O)c(C)cc(C(C)=O)c4O)c(Cc4c(O)c(C)cc(C(C)=O)c4O)c3c2)cc(OC)c1OC
- CC50 at 48 h [1]: > 300 µM
- selectivity ratio [2]: > 37.5

SMILES: COc1ccc2[nH]c(Cc3c(O)c(C)cc(C(C)=O)c3O)c(Cc3c(O)c(C)cc(C(C)=O)c3O)c2c1
- CC50 at 48 h [1]: > 300 µM
- selectivity ratio [2]: > 18.9

SMILES: CC(=O)c1cc(C)c(O)c(Cc2[nH]c3cc(-c4ccccc4)ccc3c2Cc2c(O)c(C)cc(C(C)=O)c2O)c1O
- CC50 at 48 h [1]: > 300 µM
- selectivity ratio [2]: > 12.8

SMILES: CC(=O)c1cc(C)c(O)c(Cc2[nH]c3ccc(-c4ccsc4)cc3c2Cc2c(O)c(C)cc(C(C)=O)c2O)c1O
- CC50 at 48 h [1]: > 300 µM

SMILES: CC(=O)c1cc(C)c(O)c(Cc2c(Cc3c(O)c(C)cc(C(C)=O)c3O)n(Cc3ccc(Cl)cc3)c3ccccc23)c1O
- CC50 at 48 h [1]: > 300 µM

SMILES: CC(=O)c1cc(C)c(O)c(Cc2[nH]c3cc(-c4ccc5c(c4)OCCO5)ccc3c2Cc2c(O)c(C)cc(C(C)=O)c2O)c1O
- CC50 at 48 h [1]: > 300 µM
- selectivity ratio [2]: > 15.5

SMILES: CC(=O)c1cc(C)c(O)c(Cc2[nH]c3ccc(-c4ccc5c(c4)OCCO5)cc3c2Cc2c(O)c(C)cc(C(C)=O)c2O)c1O
- CC50 at 48 h [1]: > 300 µM
- selectivity ratio [2]: > 23.1

SMILES: CC(=O)c1cc(C)c(O)c(Cc2[nH]c3ccc(-c4ccc5ccccc5c4)cc3c2Cc2c(O)c(C)cc(C(C)=O)c2O)c1O
- CC50 at 48 h [1]: > 300 µM
- selectivity ratio [2]: > 14.5

SMILES: CC(=O)c1cc(C)c(O)c(Cc2[nH]c3ccc(-c4cc(C(C)(C)C)cc(C(C)(C)C)c4)cc3c2Cc2c(O)c(C)cc(C(C)=O)c2O)c1O
- CC50 at 48 h [1]: > 300 µM

SMILES: COc1ccc(-c2ccc3c(Cc4c(O)c(C)cc(C(C)=O)c4O)c(Cc4c(O)c(C)cc(C(C)=O)c4O)[nH]c3c2)cc1
- CC50 at 48 h [1]: > 300 µM
- selectivity ratio [2]: > 34.5

SMILES: CC(=O)c1cc(C)c(O)c(Cc2[nH]c3cc(-c4c5ccccc5cc5ccccc45)ccc3c2Cc2c(O)c(C)cc(C(C)=O)c2O)c1O
- CC50 at 48 h [1]: > 300 µM
- selectivity ratio [2]: > 36.1

SMILES: COc1cc(-c2ccc3c(Cc4c(O)c(C)cc(C(C)=O)c4O)c(Cc4c(O)c(C)cc(C(C)=O)c4O)[nH]c3c2)cc(OC)c1OC
- CC50 at 48 h [1]: > 300 µM
- selectivity ratio [2]: > 14.9

SMILES: CC(=O)c1cc(C)c(O)c(Cc2[nH]c3ccc(-c4ccc5ncccc5c4)cc3c2Cc2c(O)c(C)cc(C(C)=O)c2O)c1O
- CC50 at 48 h [1]: > 300 µM
- selectivity ratio [2]: > 16.2

SMILES: CC(=O)c1cc(C)c(O)c(Cc2[nH]c3ccc(-c4ccc(F)cc4)cc3c2Cc2c(O)c(C)cc(C(C)=O)c2O)c1O
- CC50 at 48 h [1]: 212 µM

SMILES: COc1ccc2c(Cc3c(O)c(C)cc(C(C)=O)c3O)c(Cc3c(O)c(C)cc(C(C)=O)c3O)[nH]c2c1
- CC50 at 48 h [1]: > 300 µM
- selectivity ratio [2]: > 23.8

SMILES: COc1ccc2cc(-c3ccc4c(Cc5c(O)c(C)cc(C(C)=O)c5O)c(Cc5c(O)c(C)cc(C(C)=O)c5O)[nH]c4c3)ccc2c1
- CC50 at 48 h [1]: > 300 µM
- selectivity ratio [2]: > 12.9

SMILES: CC(=O)c1cc(C)c(O)c(Cc2[nH]c3cc(-c4ccc5cccnc5c4)ccc3c2Cc2c(O)c(C)cc(C(C)=O)c2O)c1O
- CC50 at 48 h [1]: > 300 µM

SMILES: CC(=O)c1cc(C)c(O)c(Cc2[nH]c3cc(-c4ccc(C)cc4)ccc3c2Cc2c(O)c(C)cc(C(C)=O)c2O)c1O
- CC50 at 48 h [1]: > 300 µM
- selectivity ratio [2]: > 12.4

SMILES: CC(=O)c1cc(C)c(O)c(Cc2[nH]c3ccc(-c4cc(C(F)(F)F)cc(C(F)(F)F)c4)cc3c2Cc2c(O)c(C)cc(C(C)=O)c2O)c1O
- CC50 at 48 h [1]: > 300 µM

SMILES: COc1ccc(-c2ccc3[nH]c(Cc4c(O)c(C)cc(C(C)=O)c4O)c(Cc4c(O)c(C)cc(C(C)=O)c4O)c3c2)cc1OC
- CC50 at 48 h [1]: > 300 µM
- selectivity ratio [2]: > 16.6

SMILES: CC(=O)c1cc(C)c(O)c(Cc2[nH]c3ccc(/C=C/c4ccccc4)cc3c2Cc2c(O)c(C)cc(C(C)=O)c2O)c1O
- CC50 at 48 h [1]: > 300 µM

SMILES: CC(=O)c1cc(C)c(O)c(Cc2[nH]c3cc(-c4cc(C)cc(C)c4)ccc3c2Cc2c(O)c(C)cc(C(C)=O)c2O)c1O
- CC50 at 48 h [1]: > 300 µM
- selectivity ratio [2]: > 29.7

SMILES: CC(=O)c1cc(C)c(O)c(Cc2c(Cc3c(O)c(C)cc(C(C)=O)c3O)n(Cc3ccccc3)c3ccccc23)c1O
- CC50 at 48 h [1]: > 300 µM

SMILES: CC(=O)c1cc(C)c(O)c(Cc2[nH]c3cc(-c4cccc(O)c4)ccc3c2Cc2c(O)c(C)cc(C(C)=O)c2O)c1O
- CC50 at 48 h [1]: 126 µM

SMILES: CC(=O)c1cc(C)c(O)c(Cc2[nH]c3ccc(-c4ccc(C)cc4)cc3c2Cc2c(O)c(C)cc(C(C)=O)c2O)c1O
- CC50 at 48 h [1]: > 300 µM
- selectivity ratio [2]: > 19.4

SMILES: CSc1ccc(-c2ccc3[nH]c(Cc4c(O)c(C)cc(C(C)=O)c4O)c(Cc4c(O)c(C)cc(C(C)=O)c4O)c3c2)cc1
- CC50 at 48 h [1]: > 300 µM
- selectivity ratio [2]: > 17.1

SMILES: CC(=O)c1cc(C)c(O)c(Cc2[nH]c3ccc(-c4cc(C)cc(C)c4)cc3c2Cc2c(O)c(C)cc(C(C)=O)c2O)c1O
- CC50 at 48 h [1]: > 300 µM
- selectivity ratio [2]: > 22.2

SMILES: CC(=O)c1cc(C)c(O)c(Cc2[nH]c3ccc(-c4csc5ccccc45)cc3c2Cc2c(O)c(C)cc(C(C)=O)c2O)c1O
- CC50 at 48 h [1]: > 300 µM
- selectivity ratio [2]: > 12.8

SMILES: CC(=O)c1cc(C)c(O)c(Cc2c(Cc3c(O)c(C)cc(C(C)=O)c3O)n(N)c3ccccc23)c1O
- CC50 at 48 h [1]: > 300 µM

SMILES: CC(=O)c1cc(C)c(O)c(Cc2[nH]c3ccc(Cl)cc3c2Cc2c(O)c(C)cc(C(C)=O)c2O)c1O
- CC50 at 48 h [1]: > 300 µM

SMILES: CC(=O)c1cc(C)c(O)c(Cc2[nH]c3ccc(-c4ccccc4)cc3c2Cc2c(O)c(C)cc(C(C)=O)c2O)c1O
- CC50 at 48 h [1]: > 300 µM
- selectivity ratio [2]: > 11.5

SMILES: CC(=O)c1cc(C)c(O)c(Cc2[nH]c3cc(-c4ccc(C(F)(F)F)cc4)ccc3c2Cc2c(O)c(C)cc(C(C)=O)c2O)c1O
- CC50 at 48 h [1]: > 300 µM
- selectivity ratio [2]: > 12

SMILES: CC(=O)c1cc(C)c(O)c(Cc2[nH]c3ccc(-c4cccc(F)c4)cc3c2Cc2c(O)c(C)cc(C(C)=O)c2O)c1O
- CC50 at 48 h [1]: > 300 µM

SMILES: CC(=O)c1cc(C)c(O)c(Cc2[nH]c3cc(-c4cc(C(F)(F)F)cc(C(F)(F)F)c4)ccc3c2Cc2c(O)c(C)cc(C(C)=O)c2O)c1O
- CC50 at 48 h [1]: > 300 µM

SMILES: CC(=O)c1cc(C)c(O)c(Cc2[nH]c3ccc(C)cc3c2Cc2c(O)c(C)cc(C(C)=O)c2O)c1O
- CC50 at 48 h [1]: > 300 µM
- selectivity ratio [2]: > 14.6

SMILES: CC(=O)c1cc(C)c(O)c(Cc2[nH]c3cc(-c4ccc5ccccc5c4)ccc3c2Cc2c(O)c(C)cc(C(C)=O)c2O)c1O
- CC50 at 48 h [1]: > 300 µM
- selectivity ratio [2]: > 11.5

SMILES: CC(=O)c1cc(C)c(O)c(Cc2c(Cc3c(O)c(C)cc(C(C)=O)c3O)n(Cc3ccc(F)cc3)c3ccccc23)c1O
- CC50 at 48 h [1]: > 300 µM

SMILES: C=CCn1c(Cc2c(O)c(C)cc(C(C)=O)c2O)c(Cc2c(O)c(C)cc(C(C)=O)c2O)c2ccccc21
- CC50 at 48 h [1]: > 300 µM

SMILES: CC(=O)c1cc(C)c(O)c(Cc2[nH]c3ccc(-c4ccc(C(F)(F)F)cc4)cc3c2Cc2c(O)c(C)cc(C(C)=O)c2O)c1O
- CC50 at 48 h [1]: > 300 µM
- selectivity ratio [2]: > 13.7

SMILES: CC(=O)c1cc(C)c(O)c(Cc2[nH]c3cc(-c4ccc(Cl)cc4)ccc3c2Cc2c(O)c(C)cc(C(C)=O)c2O)c1O
- CC50 at 48 h [1]: > 300 µM

SMILES: CC(=O)c1cc(C)c(O)c(Cc2[nH]c3ccc(-c4cccc(O)c4)cc3c2Cc2c(O)c(C)cc(C(C)=O)c2O)c1O
- CC50 at 48 h [1]: 152 µM

SMILES: CC(=O)c1cc(C)c(O)c(Cc2[nH]c3ccc(F)cc3c2Cc2c(O)c(C)cc(C(C)=O)c2O)c1O
- CC50 at 48 h [1]: 281 µM

SMILES: CC(=O)c1cc(C)c(O)c(Cc2[nH]c3cc(-c4ccsc4)ccc3c2Cc2c(O)c(C)cc(C(C)=O)c2O)c1O
- CC50 at 48 h [1]: > 300 µM
